This is an account of results in ChEMBL document CHEMBL1149304, “1,3,4-thiadiazole derivatives. Synthesis, structure elucidation, and structure-antituberculosis activity relationship investigation” (2004).

The experiment has as its system Mycobacterium tuberculosis. In words: Antituberculosis activity against Mycobacterium tuberculosis H37Rv ATCC 27294 at 6.25 ug/mL. In kind it is functional.

For the compound `Clc1ccc(Nc2nnc(-c3ccccc3)s2)cc1`, the inhibition (as a rule, the change of the read-out against control, counted positive when it falls) at 6.25 µg/mL came out at 30%. As to `Fc1ccc(Nc2nnc(-c3ccccc3)s2)cc1`, the inhibition at 6.25 µg/mL came to 50%. For the compound `Fc1ccc(-c2nnc(Nc3ccc(Cl)cc3)s2)cc1`, the inhibition at 6.25 µg/mL was 42%. Then `Cc1ccc(Nc2nnc(-c3ccncc3)s2)cc1`, with 38%; and `O=[N+]([O-])c1ccc(Nc2nnc(-c3ccncc3)s2)cc1`, with 18%. As to `Fc1ccc(Nc2nnc(-c3ccc(Cl)cc3)s2)cc1`, testing at 6.25 µg/mL gave an inhibition of 54%. The result for `Fc1ccc(Nc2nnc(-c3ccc(F)cc3)s2)cc1` reads 52%; that for `O=[N+]([O-])c1ccc(Nc2nnc(-c3ccc([N+](=O)[O-])cc3)s2)cc1`, 20%. In the case of `Fc1ccc(-c2nnc(Nc3ccc(Br)cc3)s2)cc1`, the inhibition at 6.25 µg/mL worked out at 40%. The result for `Clc1ccc(Nc2nnc(-c3ccncc3)s2)cc1` reads 59%; that for `O=[N+]([O-])c1ccc(-c2nnc(Nc3ccc(F)cc3)s2)cc1`, 30%.

`Cc1ccc(Nc2nnc(-c3ccccc3)s2)cc1`: the inhibition at 6.25 µg/mL stood at 21%. Turning to `O=[N+]([O-])c1ccc(Nc2nnc(-c3ccccc3)s2)cc1`, 6.25 µg/mL produced 18% inhibition.

As for `Brc1ccc(-c2nnc(Nc3ccccc3)s2)cc1`, the inhibition at 6.25 µg/mL came to 0%. For `O=[N+]([O-])c1ccc(Nc2nnc(-c3ccc(Br)cc3)s2)cc1`, the inhibition at 6.25 µg/mL stood at 43%. Then `Clc1ccc(-c2nnc(Nc3ccc(Br)cc3)s2)cc1`, with 34%; and `Clc1ccc(Nc2nnc(-c3ccc(Cl)cc3)s2)cc1`, with 32%; and `O=[N+]([O-])c1ccc(Nc2nnc(-c3ccc(F)cc3)s2)cc1`, with 8%. Take `O=[N+]([O-])c1ccc(-c2nnc(Nc3ccc(Br)cc3)s2)cc1`: the inhibition at 6.25 µg/mL worked out at 26%. `Clc1ccc(Nc2nnc(-c3ccc(Br)cc3)s2)cc1` yielded an inhibition at 6.25 µg/mL of 33%. Turning to `Fc1ccc(Nc2nnc(-c3ccc(Br)cc3)s2)cc1`, the inhibition at 6.25 µg/mL is 42%.

Regarding `Cc1ccc(Nc2nnc(-c3ccc(Br)cc3)s2)cc1`, the inhibition at 6.25 µg/mL was found to be 31%. The compound `Brc1ccc(Nc2nnc(-c3ccccc3)s2)cc1` came in with an inhibition at 6.25 µg/mL of 36%. For `Brc1ccc(Nc2nnc(-c3ccncc3)s2)cc1`, the inhibition at 6.25 µg/mL is 53%.

As to `c1ccc(Nc2nnc(-c3ccncc3)s2)cc1`, at 6.25 µg/mL the inhibition was 38%.

`Brc1ccc(Nc2nnc(-c3ccc(Br)cc3)s2)cc1` gave an inhibition at 6.25 µg/mL of 33%. As to `Cc1ccc(Nc2nnc(-c3ccc([N+](=O)[O-])cc3)s2)cc1`, the inhibition at 6.25 µg/mL was 33%. Compound `O=[N+]([O-])c1ccc(Nc2nnc(-c3ccc(Cl)cc3)s2)cc1` came in with an inhibition at 6.25 µg/mL of 44%. The result for `Cc1ccc(Nc2nnc(-c3ccc(Cl)cc3)s2)cc1` reads 42%.

Turning to `Cc1ccc(Nc2nnc(-c3ccc(F)cc3)s2)cc1`, testing at 6.25 µg/mL gave an inhibition of 39%. The compound `Fc1ccc(Nc2nnc(-c3ccncc3)s2)cc1` displayed an inhibition at 6.25 µg/mL of 49%. `O=[N+]([O-])c1ccc(-c2nnc(Nc3ccc(Cl)cc3)s2)cc1` showed an inhibition at 6.25 µg/mL of 29%.
